{
  "source": "paper PMC10824102",
  "about": "“Identification of small molecule inhibitors of G3BP-driven stress granule formation” (The Journal of Cell Biology, 2024)",
  "key": {"[1]": {"tested_on": "TDP-43 accumulation in stress granules in U2OS cells", "test": "TDP-43 immunofluorescence after preincubation and arsenite", "assay_type": "cell-based", "details": "50 μM pretreatment, 250 μM NaAsO2 for 30 min", "method": "U2OS cells or U2OS cells stably expressing G3BP1-GFP were seeded in four-well Lab-Tek II Chambered Coverglass (1055360; Thermo Fisher Scientific). For preincubation experiments, cells were treated with 50 μM G3I compound for 20 min or 24 h, followed by 250 μM NaAsO2 and 50 μM G3I compound for 30 min. For posttreatment, cells were treated with 250 μM NaAsO2 for 30 min, followed by treatment with 250 μM NaAsO2 and 50 μM G3I compound for 5 min. Cells were then washed twice with PBS and fixed with 4% PFA in PBS for 10 min. Cells were then washed three times with PBS (5 min between each wash), permeabilized with 0.5% Triton X-100 in PBS for 10 min, and washed twice with PBS. Next, cells were blocked for 1 h with 3% BSA in PBS at room temperature, followed by incubation with primary antibodies diluted in 3% BSA overnight at 4°C. Cells were then washed three times with PBS (5 min between each wash) and incubated with secondary antibodies and Hoechst diluted in 3% BSA at room temperature for 1 h. Cells were then washed three times with PBS (5 min between each wash) and imaged. […]"}, "[2]": {"tested_on": "G3BP1 and FUS R495X puncta in U2OS cells with tdTomato-tagged endogenous G3BP1", "test": "Pretreatment before FUS R495X transfection, cytoplasmic puncta area", "assay_type": "cell-based", "details": "50 μM, 20 min before FUS R495X transfection, 24 h", "method": "U2OS cells with knock-in of G3BP1-tdTomato ([Yang et al., 2020]) were seeded into 96-well plates (3904; Corning). Either GFP-VCP-A232E or GFP-FUS-R495X were transfected into cells using ViaFect transfection reagent (Promega) 24 h prior to the start of the experiment. For samples to be treated with compounds G3Ia or G3Ia′, Hoechst (1:5,000; Biotium) was added and incubated for 30 min prior to the start of the experiment, washed once with PBS, and the media was changed to 100 μl FluoroBrite DMEM media (Gibco) upon starting the experiment. Imaging of plates was performed on a Cytation C10 spinning disk confocal (BioTek) with a Hamamatsu Orca-Flash 4.0 camera using Gen5 software (version 3.11). Imaging was performed through an Olympus Plan Apo 40× 0.6 NA dry objective with an adjustable collar set to 0.5 μm thickness. Laser autofocus prior to imaging the tdTomato channel was utilized for each image. The temperature was maintained at 37°C on the instrument and the cells were supplied with 5% CO2. A 7 × 7 tilescan was taken at the center of each well, capturing the tdTomato and GFP channels (and Hoechst when present). After completing the tilescan, 100 μl FluoroBrite with 100 μM (2×) G3I compound (vortexed for 5 s) was added to each well and incubated for 20 min before starting another round of imaging in the same locations as the first round. Samples treated with G3Ib or G3Ib′ were analyzed manually, scoring each cell with spontaneous granules for the presence or absence of granules following treatment with the compound. For experiments in which G3I compounds were pretreated prior to transfection, 50 μM of indicated compound or vehicle control were added to U2OS cells 20 min prior to the addition of the transfection reagent. After 24 h of transfection, the cells were washed with PBS, fixed in 4% formaldehyde, and incubated with Hoechst (1:5,000; Biotium) in PBS for 30 min prior to the start of the experiment, washed once with PBS, and at room temperature imaging on the Cytation C10 spinning disk confocal was performed as described above.\nSamples treated with G3Ia or G3Ia′ were analyzed using an automated pipeline. Segmentation was performed in both ilastik and Cellpose 2.0. Nuclear segmentation using the Hoechst channel and granule segmentation in both GFP and tdTomato channels was performed via pixel classification in ilastik using small cropped portions of the tilescan as the training dataset for each. Individual cell segmentation was performed in Cellpose 2.0 by inputting a merged RGB of the Hoechst and G3BP1-tdTomato channels. The Cellpose output was then eroded by one pixel and set as a binary mask in Fiji. […]"}},
  "data": [
    {"molecule": "CC(NC(=O)C(NC(=O)C(NC(=O)CCC(C)(C)C)C(C)(C)O)C(C)c1ccccc1)C(=O)N1CCCC1c1ccccc1", "note": "(stereo not drawn) [G3Ib]", "values": [
      {"measurement": "TDP-43 accumulation in stress granules", "setting": "[1]", "value": "not"},
      {"measurement": "area of G3BP1 found in puncta compared with vehicle-treated cells", "setting": "[2]", "value": "reduced the area of G3BP1 found in puncta"},
      {"measurement": "formation and incorporation of FUS R495X into cytoplasmic granules", "setting": "[2]", "value": "failed to block the formation and incorporation of FUS R495X into cytoplasmic granules"}
    ]},
    {"molecule": "COCCC(NC(=O)C(C)NC(=O)C(NC(=O)C(NC(=O)C(F)CC(C)(C)C)C(C)(C)O)C(C)c1ccccc1)C(=O)N(C)Cc1ccccc1", "note": "(stereo not drawn) [G3Ia]", "values": [
      {"measurement": "TDP-43 accumulation in stress granules", "setting": "[1]", "value": "not"},
      {"measurement": "area of G3BP1 found in puncta compared with vehicle-treated cells", "setting": "[2]", "value": "reduced the area of G3BP1 found in puncta"},
      {"measurement": "formation and incorporation of FUS R495X into cytoplasmic granules", "setting": "[2]", "value": "failed to block the formation and incorporation of FUS R495X into cytoplasmic granules"}
    ]}
  ]
}
